# Like-named read-outs stand apart in the source and are kept apart here.
# Legend:
# VCaP cells = assay: Cytotoxicity assessment (Cell-titer-glo cell viability), VCaP
# Androgen receptor (AR) = biological target: T1, Androgen receptor (AR) (Homo sapiens, UniProt P10275, T878A); assay: Assessment of AR proteolytic activity (Western blotting of LNCap cell lysates); type: cell-based; conditions: 24 hours of treatment, Western blotting quantified with Image J; for remaining activity at 1 µM: read-out: Degradation (1 μM treated in LNCaP, % AR remaining)
# T1 construct: 5.5×10^5 LNCap cells were injected into each well of a 6-well plate; endogenous in cells; host or cells: LNCaP
# T1 sequence (P10275 1-920 T878A): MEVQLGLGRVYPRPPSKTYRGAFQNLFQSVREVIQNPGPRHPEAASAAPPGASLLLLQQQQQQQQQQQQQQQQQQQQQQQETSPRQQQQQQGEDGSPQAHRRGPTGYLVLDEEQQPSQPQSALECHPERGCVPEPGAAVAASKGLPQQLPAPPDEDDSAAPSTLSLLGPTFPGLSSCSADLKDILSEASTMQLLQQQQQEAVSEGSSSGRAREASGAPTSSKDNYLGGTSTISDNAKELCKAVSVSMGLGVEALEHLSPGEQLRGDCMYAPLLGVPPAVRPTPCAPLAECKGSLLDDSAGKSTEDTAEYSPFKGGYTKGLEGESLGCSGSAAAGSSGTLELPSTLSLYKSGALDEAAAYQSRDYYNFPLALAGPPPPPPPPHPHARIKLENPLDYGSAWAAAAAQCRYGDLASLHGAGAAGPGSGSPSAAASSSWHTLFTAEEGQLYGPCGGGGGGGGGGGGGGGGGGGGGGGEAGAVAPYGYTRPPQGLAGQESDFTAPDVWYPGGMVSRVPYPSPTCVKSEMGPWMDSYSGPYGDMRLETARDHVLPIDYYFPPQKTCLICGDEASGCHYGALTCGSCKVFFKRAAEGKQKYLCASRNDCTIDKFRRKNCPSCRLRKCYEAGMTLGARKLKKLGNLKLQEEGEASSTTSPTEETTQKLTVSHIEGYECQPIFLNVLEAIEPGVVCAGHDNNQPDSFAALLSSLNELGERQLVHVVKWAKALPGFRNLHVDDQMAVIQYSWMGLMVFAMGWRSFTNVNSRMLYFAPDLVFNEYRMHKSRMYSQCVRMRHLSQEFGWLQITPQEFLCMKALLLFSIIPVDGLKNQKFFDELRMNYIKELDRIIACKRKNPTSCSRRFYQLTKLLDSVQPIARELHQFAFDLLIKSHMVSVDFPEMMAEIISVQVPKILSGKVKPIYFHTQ
# Outline: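 AR degradation read by Western blot densitometry on RIPA lysates (pH 7.5, protease inhibitor cocktail). Lysates came from LNCap cells, 5.5×10^5 per well, exposed to compound for 24 hours.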
# [1] = read-out: VCaP (CC50), VCaP cells, 6 days of treatment, Cell-titer-glo, vs DMSO
# [2] = Homo sapiens, VCaP, 144 h, read-out: VCaP (CC50, μM)
remaining activity at 1 µM (Androgen receptor (AR)) [%],SMILES,CC50 (VCaP cells; [1]) [µM],"Degradation (1 μM treated in LNCaP, % AR remaining) (Androgen receptor (AR)) [%]",CC50 (VCaP cells; [2]) [µM]
,"CC1(C)C(NC(=O)c2ccc(N3CCN(CCCOC4CCN(C(=O)C5CCN(c6ccc7nnn(C8CCC(=O)NC8=O)c(=O)c7c6)CC5)CC4)CC3)cc2)C(C)(C)C1Oc1ccc(C#N)c(Cl)c1 (centres unmarked) [Example 35, N-((1r,3r)-3-(3-chloro-4-cyanophenoxy)-2,2,4,4-tetramethylcyclobutyl)-4-(4-(3-((1-(1-(3-(2,6-dioxopiperidin-3-yl)-4-oxo-3,4-dihydrobenzo[d][1,2,3]triazin-6-yl)piperidine-4-carbonyl)piperidin-4-yl)oxy)propyl)piperazin-1-yl)benzamide]",0.0525,6.4,
,"CC1(C)C(NC(=O)c2ccc(N3CCN(CCCOC4CCN(C(=O)CNc5ccc6nnn(C7CCC(=O)NC7=O)c(=O)c6c5)CC4)CC3)cc2)C(C)(C)C1Oc1ccc(C#N)c(Cl)c1 (centres unmarked) [Example 37, N-((1r,3r)-3-(3-chloro-4-cyanophenoxy)-2,2,4,4-tetramethylcyclobutyl)-4-(4-(3-((1-((3-(2,6-dioxopiperidin-3-yl)-4-oxo-3,4-dihydrobenzo[d][1,2,3]triazin-6-yl)glycyl)piperidin-4-yl)oxy)propyl)piperazin-1-yl)benzamide]",0.0291,14.9,
,"CC1(C)[C@H](NC(=O)c2ccc(N3CCN(C(=O)CNc4ccc5nnn(C6CCC(=O)NC6=O)c(=O)c5c4)CC3)cc2)C(C)(C)[C@H]1Oc1ccc(C#N)c(Cl)c1 (some centres unmarked) [Example 40, N-((1r,3r)-3-(3-chloro-4-cyanophenoxy)-2,2,4,4-tetramethylcyclobutyl)-4-(4-((3-(2,6-dioxopiperidin-3-yl)-4-oxo-3,4-dihydrobenzo[d][1,2,3]triazin-6-yl)glycyl)piperazin-1-yl)benzamide]",0.0243,19.7,
,"CC1(C)[C@H](NC(=O)c2ccc(N3CCN(C(=O)C4CCN(c5ccc6nnn(C7CCC(=O)NC7=O)c(=O)c6c5)CC4)CC3)cc2)C(C)(C)[C@H]1Oc1ccc(C#N)c(Cl)c1 (some centres unmarked) [Example 42, N-((1r,3r)-3-(3-chloro-4-cyanophenoxy)-2,2,4,4-tetramethylcyclobutyl)-4-(4-(1-(3-(2,6-dioxopiperidin-3-yl)-4-oxo-3,4-dihydrobenzo[d][1,2,3]triazin-6-yl)piperidine-4-carbonyl)piperazin-1-yl)benzamide]",0.0494,10,
,"CC1(C)C(NC(=O)c2ccc(N3CCN(CCCC4CCN(C(=O)C5CCN(c6ccc7nnn(C8CCC(=O)NC8=O)c(=O)c7c6)CC5)CC4)CC3)cc2)C(C)(C)C1Oc1ccc(C#N)c(Cl)c1 (centres unmarked) [Example 46, N-((1r,3r)-3-(3-chloro-4-cyanophenoxy)-2,2,4,4-tetramethylcyclobutyl)-4-(4-(3-(1-(1-(3-(2,6-dioxopiperidin-3-yl)-4-oxo-3,4-dihydrobenzo[d][1,2,3]triazin-6-yl)piperidine-4-carbonyl)piperidin-4-yl)propyl)piperazin-1-yl)benzamide]",0.0522,15.6,
8.6,"CC1(C)[C@H](NC(=O)c2ccc(N3CCC(CN4CCN(C(=O)C5CCN(c6ccc7nnn(C8CCC(=O)NC8=O)c(=O)c7c6)CC5)CC4)CC3)cc2)C(C)(C)[C@H]1Oc1ccc(C#N)c(Cl)c1 (some centres unmarked) [Example 49, N-((1r,3r)-3-(3-chloro-4-cyanophenoxy)-2,2,4,4-tetramethylcyclobutyl)-4-(4-((4-(1-(3-(2,6-dioxopiperidin-3-yl)-4-oxo-3,4-dihydrobenzo[d][1,2,3]triazin-6-yl)piperidine-4-carbonyl)piperazin-1-yl)methyl)piperidin-1-yl)benzamide]",,,0.0678
6.8,"CC1(C)[C@H](NC(=O)c2ccc(C3CCN(CC4CCN(c5ccc6nnn(C7CCC(=O)NC7=O)c(=O)c6c5)CC4)CC3)cc2)C(C)(C)[C@H]1Oc1ccc(C#N)c(Cl)c1 (some centres unmarked) [Example 50, N-((1r,3r)-3-(3-chloro-4-cyanophenoxy)-2,2,4,4-tetramethylcyclobutyl)-4-(1-((1-(3-(2,6-dioxopiperidin-3-yl)-4-oxo-3,4-dihydrobenzo[d][1,2,3]triazin-6-yl)piperidin-4-yl)methyl)piperidin-4-yl)benzamide]",,,0.223
,"CC1(C)[C@H](NC(=O)c2ccc(C3CCN(CC4CCN(C(=O)C5CCN(c6ccc7nnn(C8CCC(=O)NC8=O)c(=O)c7c6)CC5)CC4)CC3)cc2)C(C)(C)[C@H]1Oc1ccc(C#N)c(Cl)c1 (some centres unmarked) [Example 51, N-((1r,3r)-3-(3-chloro-4-cyanophenoxy)-2,2,4,4-tetramethylcyclobutyl)-4-(1-((1-(1-(3-(2,6-dioxopiperidin-3-yl)-4-oxo-3,4-dihydrobenzo[d][1,2,3]triazin-6-yl)piperidine-4-carbonyl)piperidin-4-yl)methyl)piperidin-4-yl)benzamide]",0.228,10.4,
,"CC1(C)[C@H](NC(=O)c2ccc(C3CCN(CC4CCN(C(=O)C5CCN(c6ccc7nnn(C8CCC(=O)NC8=O)c(=O)c7c6)CC5)CC4)CC3)cc2)C(C)(C)[C@H]1Oc1ccc(C#N)c(Cl)c1 (some centres unmarked) [Example 52, N-((1r,3r)-3-(3-chloro-4-cyanophenoxy)-2,2,4,4-tetramethylcyclobutyl)-4-(1-((1-(1-(3-(2,6-dioxopiperidin-3-yl)-4-oxo-3,4-dihydrobenzo[d][1,2,3]triazin-6-yl)piperidine-4-carbonyl)piperidin-4-yl)methyl)piperidin-4-yl)benzamide]",0.0594,32.2,
,"CC1(C)C(NC(=O)c2ccc(-n3cc(CCNC(=O)C4CN(c5ccc6nnn(C7CCC(=O)NC7=O)c(=O)c6c5)C4)nn3)cc2)C(C)(C)C1Oc1ccc(C#N)c(Cl)c1 (centres unmarked) [Example 155, N-(2-(1-(4-(((1r,3r)-3-(3-chloro-4-cyanophenoxy)-2,2,4,4-tetramethylcyclobutyl)carbamoyl)phenyl)-1H-1,2,3-triazol-4-yl)ethyl)-1-(3-(2,6-dioxopiperidin-3-yl)-4-oxo-3,4-dihydrobenzo[d][1,2,3]triazin-6-yl)azetidine-3-carboxamide]",0.177,,
,"CC1(C)C(NC(=O)c2ccc(-n3cc(CCNC(=O)CNc4ccc5nnn(C6CCC(=O)NC6=O)c(=O)c5c4)nn3)cc2)C(C)(C)C1Oc1ccc(C#N)c(Cl)c1 (centres unmarked) [Example 156, N-((1r,3r)-3-(3-chloro-4-cyanophenoxy)-2,2,4,4-tetramethylcyclobutyl)-4-(4-(2-(2-((3-(2,6-dioxopiperidin-3-yl)-4-oxo-3,4-dihydrobenzo[d][1,2,3]triazin-6-yl)amino)acetamido)ethyl)-1H-1,2,3-triazol-1-yl)benzamide]",0.936,,
,"CC1(C)C(NC(=O)c2ccc(-n3cc(CCOCCOCCNC(=O)C4CN(c5ccc6nnn(C7CCC(=O)NC7=O)c(=O)c6c5)C4)nn3)cc2)C(C)(C)C1Oc1ccc(C#N)c(Cl)c1 (centres unmarked) [Example 157, N-(2-(2-(2-(1-(4-(((1r,3r)-3-(3-chloro-4-cyanophenoxy)-2,2,4,4-tetramethylcyclobutyl)carbamoyl)phenyl)-1H-1,2,3-triazol-4-yl)ethoxy)ethoxy)ethyl)-1-(3-(2,6-dioxopiperidin-3-yl)-4-oxo-3,4-dihydrobenzo[d][1,2,3]triazin-6-yl)azetidine-3-carboxamide]",0.0321,,
,"CC1(C)C(NC(=O)c2ccc(-n3cc(CCOCCOCCNC(=O)C4CCN(c5ccc6nnn(C7CCC(=O)NC7=O)c(=O)c6c5)CC4)nn3)cc2)C(C)(C)C1Oc1ccc(C#N)c(Cl)c1 (centres unmarked) [Example 158, N-(2-(2-(2-(1-(4-(((1r,3r)-3-(3-chloro-4-cyanophenoxy)-2,2,4,4-tetramethylcyclobutyl)carbamoyl)phenyl)-1H-1,2,3-triazol-4-yl)ethoxy)ethoxy)ethyl)-1-(3-(2,6-dioxopiperidin-3-yl)-4-oxo-3,4-dihydrobenzo[d][1,2,3]triazin-6-yl)piperidine-4-carboxamide]",0.0387,,
,"CC1(C)C(NC(=O)c2ccc(-n3cc(CCOCCOCCNC(=O)CNc4ccc5nnn(C6CCC(=O)NC6=O)c(=O)c5c4)nn3)cc2)C(C)(C)C1Oc1ccc(C#N)c(Cl)c1 (centres unmarked) [Example 159, N-((1r,3r)-3-(3-chloro-4-cyanophenoxy)-2,2,4,4-tetramethylcyclobutyl)-4-(4-(2-(2-(2-(2-((3-(2,6-dioxopiperidin-3-yl)-4-oxo-3,4-dihydrobenzo[d][1,2,3]triazin-6-yl)amino)acetamido)ethoxy)ethoxy)ethyl)-1H-1,2,3-triazol-1-yl)benzamide]",0.109,,
